In ChEMBL document CHEMBL1201862, “PubChem BioAssay data set” (2004):
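Values below derive from 48-hour exposures of cells grown in 96-well plates, with endpoints linearly interpolated between the two concentrations bracketing the appropriate inhibition level. At the GI50, growth is halved.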 The source made the active and inactive calls. No stated cut-off is given here; in the data, active = GI50 up to about 1.1 µM and inactive = higher.

Tests used:
Assay in all cases: NCI anticancer screen, dose series, 48 h
[1] = tested on: HOP-92
[2] = tested on: SNB-75
[3] = tested on: UO-31
[4] = tested on: UACC-257
[5] = tested on: LOX IMVI
[6] = tested on: HCT-15
[7] = tested on: OVCAR-5
[8] = tested on: RXF 393
[9] = tested on: SK-MEL-28
[10] = tested on: NCI/ADR-RES
[11] = tested on: COLO 205
[12] = tested on: OVCAR-4
[13] = tested on: HCT-116
[14] = tested on: SN12C
[15] = tested on: HCC 2998
[16] = tested on: NCI-H460
[17] = tested on: EKVX
[18] = tested on: KM12
[19] = tested on: HOP-62
[20] = tested on: SW-620

Row | Compound | GI50 [1] | GI50 [2] | GI50 [3] | GI50 [4] | GI50 [5] | GI50 [6] | GI50 [7] | GI50 [8] | GI50 [9] | GI50 [10] | GI50 [11] | GI50 [12] | GI50 [13] | GI50 [14] | GI50 [15] | GI50 [16] | GI50 [17] | GI50 [18] | GI50 [19] | GI50 [20]
1 | Cc1ccc2nc3c(C(=O)NCCN(C)C)cccc3cc2c1 | 1.75 µM (inactive) | 2.99 µM (inactive) | 1.4 µM (inactive) | 2.09 µM (inactive) | 1.71 µM (inactive) | 0.834 µM | 2.1 µM (inactive) | 2.02 µM (inactive) | 2.51 µM (inactive) | 1.13 µM (inactive) | 1.02 µM (active) | 3.03 µM (inactive) | 0.807 µM (active) | 1.76 µM (inactive) | 3.8 µM (inactive) | 0.438 µM (active) | 0.802 µM (active) | 2.9 µM (inactive) | 2.85 µM (inactive) | 1.39 µM (inactive)
2 | CC(=O)O[C@H]1CC[C@H]2[C@@H]3CC[C@H]4Nc5c(cnn5S(C)(=O)=O)C[C@]4(C)[C@H]3CC[C@]12C | 98.9 µM (inactive) | 37.2 µM (inactive) | 88.1 µM (inactive) |  |  | > 100 µM | > 100 µM (inactive) | > 100 µM (inactive) | 48.2 µM (inactive) | 87.1 µM (inactive) | > 100 µM (inactive) | 18.5 µM (inactive) | 46.8 µM (inactive) | > 100 µM (inactive) | 56.4 µM (inactive) | 68.2 µM (inactive) |  | > 100 µM (inactive) | 27.6 µM (inactive) | 
3 | O=C1CN2C(Cl)(Cl)C2(c2ccccc2)c2cc(Cl)ccc2N1CC(F)(F)F (stereo not given) | 13.6 µM (inactive) | 13 µM (inactive) | 36.3 µM (inactive) | 19.6 µM (inactive) | 17.5 µM (inactive) | 25.8 µM | 56.1 µM (inactive) | 21.9 µM (inactive) | 22.6 µM (inactive) |  | 19.5 µM (inactive) | 18.5 µM (inactive) | 21.6 µM (inactive) | 16.9 µM (inactive) | 16.6 µM (inactive) | 16.1 µM (inactive) | 32.2 µM (inactive) | 19.6 µM (inactive) | 22.6 µM (inactive) | 39.4 µM (inactive)
4 | O=S1(=O)C[C@@H](NCc2ccccc2)[C@H](NCc2ccccc2)C1 | > 100 µM (inactive) | > 100 µM (inactive) | > 100 µM (inactive) | > 100 µM (inactive) | > 100 µM (inactive) |  | > 100 µM (inactive) | > 100 µM (inactive) | > 100 µM (inactive) | > 100 µM (inactive) | > 100 µM (inactive) | > 100 µM (inactive) | > 100 µM (inactive) | > 100 µM (inactive) | > 100 µM (inactive) | > 100 µM (inactive) | > 100 µM (inactive) | > 100 µM (inactive) | 37.4 µM (inactive) | > 100 µM (inactive)
5 | CN1C2CC(=O)CC1[C@H](O)[C@@H]2O |  |  | > 100 µM (inactive) | > 100 µM (inactive) | > 100 µM (inactive) | > 100 µM |  | > 100 µM (inactive) | > 100 µM (inactive) | > 100 µM (inactive) | > 100 µM (inactive) |  | > 100 µM (inactive) | > 100 µM (inactive) | > 100 µM (inactive) | > 100 µM (inactive) | > 100 µM (inactive) | > 100 µM (inactive) | > 100 µM (inactive) | > 100 µM (inactive)
6 | CC1OC1C(=O)C1(O)C(C)C(O)C23OC2(C(O)c2c(O)cccc2C3=O)C1O (stereo not given) [CERVICARCIN] | 0.033 µM (active) | 0.212 µM (active) | 0.137 µM (active) | 0.1 µM (active) | 0.2 µM (active) | 0.195 µM | 0.31 µM (active) | 0.191 µM (active) | 0.182 µM (active) | 0.207 µM (active) | 0.0706 µM (active) | 0.032 µM (active) | 0.226 µM (active) | 0.0557 µM (active) | 0.1 µM (active) | 0.118 µM (active) | 0.0908 µM (active) | 0.298 µM (active) | 0.0895 µM (active) | 0.078 µM (active)
7 | COc1ccc2c3c1O[C@H]1C[C@@H](O)C=C[C@@]31CCN(C)C2 [GALANTAMINE] | > 150 µM (inactive) | > 150 µM (inactive) | > 150 µM (inactive) | > 150 µM (inactive) | > 150 µM (inactive) | > 150 µM | > 150 µM (inactive) | > 150 µM (inactive) | > 150 µM (inactive) | > 150 µM (inactive) | > 150 µM (inactive) | > 150 µM (inactive) | > 150 µM (inactive) | > 150 µM (inactive) | > 150 µM (inactive) | > 150 µM (inactive) | > 150 µM (inactive) | > 150 µM (inactive) | > 150 µM (inactive) | > 150 µM (inactive)
8 | O=c1cc[nH]c(=O)[nH]1 [URACIL] | 311 µM (inactive) | 350 µM (inactive) | 1000 µM (inactive) | 804 µM (inactive) | 375 µM (inactive) | 798 µM | > 746 µM (inactive) | 316 µM (inactive) | 327 µM (inactive) | > 562 µM (inactive) | 187 µM (inactive) | > 656 µM (inactive) | 261 µM (inactive) | 502 µM (inactive) | 322 µM (inactive) | 305 µM (inactive) | 294 µM (inactive) | 237 µM (inactive) | 340 µM (inactive) | 361 µM (inactive)
